Test results published in article PMC11881906, “Development of xanthone derivatives as effective broad-spectrum antimicrobials: Disrupting cell wall and inhibiting DNA synthesis” (Science Advances, 2025).
In brackets after ≈: the same amount, converted by molar mass.

What was measured:
K. pneumonia ATCC 10031 = assay: MIC, broth microdilution; assay type: cell-based; details: Klebsiella pneumoniae, ATCC10031; 24-hour incubation, MHB
Description: (§1) MIC was determined using the broth microdilution method in accordance with Clinical and Laboratory Standards Institute guidelines. All compounds were dissolved in dimethyl sulfoxide (DMSO; final DMSO concentration of less than 0.5%) and sterile double-distilled water and then diluted with Mueller-Hinton broth (MHB). Each compound’s stock solution was serially twofold diluted, resulting in concentrations ranging from 0.39 to 100 μg/ml, and thereafter added to sterile 96-well plates. All bacterial cell suspensions were adjusted in MHB to attain a starting inoculum of 1 × 10^6 cells/ml. A total of 100 μl volume of the bacterial suspension was then added to each well. Following a 24-hour incubation at 37°C, the optical density at 600 nm (OD600) was confirmed by measuring absorbance at 600 nm with a BioTek microplate reader. […] All measurements were repeated three times with duplicates each time.

MRSA NCTC 10442 = assay: MIC, broth microdilution; assay type: cell-based; details: Staphylococcus aureus; 24-hour incubation, MHB; read-out: MIC90 MRSA NCTC 10442
Description: as §1

A. baumannii ATCC 17978 = assay: MIC, broth microdilution; assay type: cell-based; details: Acinetobacter baumannii, ATCC17978; 24-hour incubation, MHB
Description: as §1

K. pneumonia ATCC 14581 = assay: MIC, broth microdilution; assay type: cell-based; details: Klebsiella pneumoniae, ATCC14581; 24-hour incubation, MHB
Description: as §1

A. baumannii R2889 = assay: MIC, broth microdilution; assay type: cell-based; details: Acinetobacter baumannii, 24-hour incubation, MHB
Description: as §1

S. aureus ATCC 29213 = assay: MIC, broth microdilution; assay type: cell-based; details: Staphylococcus aureus, ATCC29213, 24 h, 24-hour incubation, MHB; read-out: MIC90 S. aureus ATCC 29213
Description: as §1

P. aeruginosa ATCC 9027 [1] = assay: MIC, broth microdilution; assay type: cell-based; details: Pseudomonas aeruginosa, ATCC9027; 24-hour incubation, MHB
Description: as §1

MRSA N315 = assay: MIC, broth microdilution; assay type: cell-based; details: Staphylococcus aureus, 24-hour incubation, MHB, read-out: MIC90 MRSA N315
Description: as §1

E. coli DNA = assay: Electrophoretic mobility shift assay; assay type: binding, Escherichia coli; details: 8× MIC
Description: Isolation of DNA from pure culture of E. coli ATCC 25922 was carried out by the TIANamp bacterial DNA kit (TIANGEN, China) according to the manufacturer’s instructions. […] A loading buffer containing 10 mM TE (pH 7.5), 0.03% bromophenol blue, 0.03% xylene cyanol FF, 60% glycerol, and 60 mM EDTA was added in the sample following incubation for 30 min at 37°C. The electrophoresis was then performed at 100 V for 2 hours in 1× tris-acetate-EDTA buffer solution [0.04 M tris-acetate (pH 8.0) and 0.001 M EDTA] using a 1% (w/v) agarose gel. The bands were visualized using the ChemiDoc imaging system with ultraviolet light. All of the experiments were repeated at least twice with duplicates each time.

P. aeruginosa ATCC 9027 [2] = assay: Serial passage resistance induction; assay type: cell-based, Pseudomonas aeruginosa; details: 20-day passages at 0.5× MIC
Description: The bacteria were grown in a medium containing 0.5× MIC of each compound to prepare the bacterial suspension for the next MIC determination. The MICs were then recorded after incubation at 37°C for 24 hours. Daily passages were continued until the initial MIC increased by more than fourfold. The stability of acquired resistance was investigated by MIC determination and repeated for 20 days.

[3] = In vivo corneal toxicity, fluorescein staining; parameters: species or system mice; details: topical application to murine cornea
Description: In addition, the in vivo toxicity assessment of compound XT17 toward murine cornea was conducted through local application using 1% fluorescein sodium solution to stain the cornea.

[4] = target: T1, topoisomerase IV from E. coli (Escherichia coli, UniProt P0AFI2+P20083); assay: Topoisomerase IV decatenation inhibition assay; assay type: biochemical; details: 1× MIC
T1 construct: purchased ProFoldin (Worcester, MA)
Description: E. coli topoisomerase enzymes (II and IV) were supplied by ProFoldin (Worcester, MA), and assays were performed according to the manufacturer’s instructions. Briefly, the DNA supercoiling assay was conducted in a volume of 40 μl containing 24 μl of H2O, 4 μl of 10× buffer, 4 μl of 10× relaxed DNA, 4 μl of 10× enzyme, and 4 μl of 10 mM adenosine triphosphate (ATP). Following a 60-min incubation at room temperature, 200 μl of H2O was added to each reaction mixture. Topoisomerase IV decatenation inhibition assay was conducted in a volume of 50 μl containing 38.5 μl of H2O, 5 μl of 10× buffer, 5 μl of 10× concatenated DNA, 0.5 μl of 100× enzyme, and 1 μl of 10 mM ATP. After 60 min of incubation at 37°C, 5 μl of 0.4 M EDTA was added to stop the reaction. […]
In the supercoiling inhibition assay, the fluorescence intensity was measured using freshly prepared 1× H19 dye, which was prepared by diluting 100× H19 dye with 10 mM tris-HCl and 10 mM NaCl (pH 7.0). […] In the decatenation inhibition assay, the change in fluorescence intensity was monitored using the 1× fluorescence dye after diluting the 20× dye with water. The reaction solution eluted from the column was mixed with 150 μl of 1× fluorescence dye. The fluorescence intensity for both assays was lastly detected at 535 nm using an excitation wavelength of 485 nm. […]

T1 sequence (P20083 whole entry): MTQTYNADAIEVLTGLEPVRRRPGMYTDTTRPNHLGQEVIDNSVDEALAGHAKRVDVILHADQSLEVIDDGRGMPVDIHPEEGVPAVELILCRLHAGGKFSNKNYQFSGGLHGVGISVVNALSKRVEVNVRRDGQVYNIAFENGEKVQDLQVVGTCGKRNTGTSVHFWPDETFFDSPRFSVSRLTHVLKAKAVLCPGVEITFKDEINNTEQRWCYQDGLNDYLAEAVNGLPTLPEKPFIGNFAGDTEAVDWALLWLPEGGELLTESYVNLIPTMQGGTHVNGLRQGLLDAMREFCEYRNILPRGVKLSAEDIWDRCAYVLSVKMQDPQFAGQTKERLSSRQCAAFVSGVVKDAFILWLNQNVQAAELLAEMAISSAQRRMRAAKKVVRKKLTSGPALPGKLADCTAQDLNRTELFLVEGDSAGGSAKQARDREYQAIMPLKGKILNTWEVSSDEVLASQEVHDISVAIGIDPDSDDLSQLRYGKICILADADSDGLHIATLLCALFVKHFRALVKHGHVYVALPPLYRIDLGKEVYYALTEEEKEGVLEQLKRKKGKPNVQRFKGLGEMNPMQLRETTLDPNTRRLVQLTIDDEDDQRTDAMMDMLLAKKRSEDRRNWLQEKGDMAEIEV
T1 sequence (P0AFI2 whole entry): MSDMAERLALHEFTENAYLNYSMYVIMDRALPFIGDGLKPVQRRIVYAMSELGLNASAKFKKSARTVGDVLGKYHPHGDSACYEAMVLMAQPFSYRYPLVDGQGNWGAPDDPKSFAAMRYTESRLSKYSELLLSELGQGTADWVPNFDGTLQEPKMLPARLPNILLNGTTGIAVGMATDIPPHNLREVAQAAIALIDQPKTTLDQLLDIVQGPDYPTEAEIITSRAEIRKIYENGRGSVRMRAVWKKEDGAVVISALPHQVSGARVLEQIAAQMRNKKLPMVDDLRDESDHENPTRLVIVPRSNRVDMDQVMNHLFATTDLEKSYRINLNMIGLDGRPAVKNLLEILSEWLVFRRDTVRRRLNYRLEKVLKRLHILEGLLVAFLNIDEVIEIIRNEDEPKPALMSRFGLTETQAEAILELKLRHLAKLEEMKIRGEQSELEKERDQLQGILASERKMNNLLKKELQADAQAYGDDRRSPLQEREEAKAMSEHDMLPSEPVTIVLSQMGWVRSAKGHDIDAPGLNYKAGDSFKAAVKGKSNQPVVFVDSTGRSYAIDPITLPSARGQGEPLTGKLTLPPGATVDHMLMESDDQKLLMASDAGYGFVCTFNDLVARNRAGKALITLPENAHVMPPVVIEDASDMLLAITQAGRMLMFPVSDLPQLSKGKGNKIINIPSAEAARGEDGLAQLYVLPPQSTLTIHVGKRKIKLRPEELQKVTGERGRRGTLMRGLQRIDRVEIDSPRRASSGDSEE

CC(C)=CCOc1cc(OCCCNC(=N)N)cc2oc3cc(OCCCNC(=N)N)ccc3c(=O)c12 [XT17]
MIC90 (K. pneumonia ATCC 10031): 6.25 µg/mL (≈ 12.2 µM)
MIC90 (MRSA NCTC 10442): 0.39 µg/mL (≈ 0.764 µM)
MIC90 (A. baumannii ATCC 17978): 25 µg/mL (≈ 49 µM)
MIC90 (K. pneumonia ATCC 14581): 12.5 µg/mL (≈ 24.5 µM)
MIC90 (A. baumannii R2889): 50 µg/mL (≈ 97.9 µM)
MIC90 (S. aureus ATCC 29213): 0.39 µg/mL (≈ 0.764 µM)
MIC90 (P. aeruginosa ATCC 9027 [1]): 3.12 µg/mL (≈ 6.12 µM)
MIC90 (MRSA N315): 0.39 µg/mL (≈ 0.764 µM)
interaction with E. coli DNA (gel mobility shift) (E. coli DNA): able to directly interact with the E. coli DNA
increase in MIC values during passages (P. aeruginosa ATCC 9027 [2]): no more than fourfold increase
corneal damage (slit-lamp, fluorescein staining) [3]: no notable signs of corneal damage
Inhibition of topoisomerase IV (%) [4]: 36.93%
